Values quoted from earlier work, collected in patent US12161674B2, “CRISPR-CAS9 modified CD34+ human hematopoietic stem and progenitor cells and uses thereof” (Vertex Pharmaceuticals Incorporated, priority 2018, dated 2024).

System: CD34^+ cells
Details: plerixafor alone

- subjects with non-severe pain crisis (despite RBC transfusions in the preceding 2 months): 3 of 7
SMILES: c1cc(CN2CCCNCCNCCCNCC2)ccc1CN1CCCNCCNCCCNCC1 [plerixafor]
- median collection of CD34^+ cells after a single apheresis (subjects with severe SCD, range 5.1 to 20.0): 10.4×10^6 CD34^+ cells/kg
